Measured values published in patent publication US5801150A, “Aminopyri(mi)dine derivatives combined with amino acids, and pharmacological activities thereof” (priority 1993, dated 1998).

Key:
[1] = Capture of the hydroxyl radical: Fenton reaction, oxidative degradation of deoxyribose (532 nm); format: biochemical; settings: for k Obtained (speed constant of the reaction with OH°): individual values of 2 or 3 tests; for k Obtained (speed constant of the reaction with OH°) / Mean k (speed constant of the reaction with OH°): pH 7.4, 37° C.; for Mean k (speed constant of the reaction with OH°): mean of 2 or 3 tests; for speed constant with respect to mannitol: ratio to mannitol
Excerpt: The Fenton reaction, the catalytic decomposition of hydrogen peroxide (H2 O2) by the action of Fe^2+, has been used to produce the hydroxyl radical Because of its widespread use, the test of oxidative degradation of deoxyribose has been selected for our study. The hydroxyl radical generated by the Fenton reaction degrades the deoxyribose and produces malonaldehyde which forms a colored complex with thiobarbituric acid. This complex is quantified by colorimetry at a wavelength of 532 nm. This methodology can be represented by the following scheme: [drawing 11] The speed constants have been determined by using the Halliwell method with modifications. The final kinematic equation is the following [formula] A and A0 : absorbances at 532 nm of the complex in the presence and in the absence of the studied derivative. kS and kd : speed constants of the reaction of OH° with the studied derivative and deoxyribose. S and D: concentrations of studied derivative and of deoxyribose. kx : term representing the reactivity of the radical OH° reacting with reagents of the Fenton reaction. In tracing the straight line 1/A as a function of the concentration S, the speed constant kS is determined. […] The reaction is initiated by the addition of the iron EDTA complex (0.13 mM (NH4)2 Fe(SO4)2; 0.143 mM EDTA). After 15 mins. of incubation at 37° C., the reaction is stopped by the addition of 1.5 ml of cold trichloroacetic acid (TCA) (2.8%). 1 ml of this solution is mixed with 1 ml of thiobarbituric acid (TBA) (1% in 0.05M NaOH) and heated for 15 mins. at 100° C. Then, the specimens are cooled and quantified at 532 nm.

[2] = Sensing superoxide anion: auto-oxidation of adrenaline (adrenochrome at 480 nm); format: biochemical; settings: for % of inhibition: pH 10.2; for IC50: superoxide anion, adrenaline auto-oxidation, read-out: concentration at which there is obtained 50% inhibition
Excerpt: The methods used can produce selectively a chosen type of FR (superoxide anion or hydroxyl radical). The detector must be able to detect proportionally all the FR formed.
Step of production and detection of FR: the radicular source supplies the free radical which will react with a detector to form a modified detector. This latter could be quantified directly or after interaction with an analytic reaction complement by spectrophotometric analysis. [drawing 9]
Determination either of the percent of sensing or of the speed constant of the sensor: a sensor enters into competition with the detector to form a modified sensor. There is obtained a reduction of the quantity of the modified detector which gives us, after mathematical analysis, either the speed constant of the reaction of the sensor with the radical, or the percentage of sensing of this radical by the sensor.
The methodology is the auto-oxidation of adrenaline: adrenaline plays the double role of producing superoxide anion and serving as a detector. Adrenaline which is stable at acid pH, oxidizes spontaneously at alkaline pH. This complex reaction gives after several steps, adrenochrome. The superoxide anion participates in it as an oxidizing agent. The formation of adrenochrome is followed at 480 nm. [drawing 10] Capture of the superoxide anion: oxidation of adrenaline
The reaction medium is constituted by 3.1 ml of sodium carbonate (0.05M) at pH 10.2 containing EDTA (0.1 mM). The oxidation reaction is initiated by the addition of 0.2 ml of adrenaline (0.01M, in 0.02N HCl). The formation of adrenochrome is followed for 2 mins. at 480 nm. The compounds to be studied are added with the aide of 0.02 ml of DMSO, before the addition of adrenaline.
The capacity of the substances to sense the superoxide anion is expressed in terms of percentage of inhibition (%I). [formula] A0 and A are respectively the absorbance of the detector modified in the absence and in the presence of the derivative studied.

[3] = literature value; cited from earlier work
keratinocytes, hair = settings: topical, cited from earlier work
[4] = topical application, cited from earlier work
[5] = apart from SOD; cited from earlier work

SMILES	k Obtained (speed constant of the reaction with OH°) [1]	Mean k (speed constant of the reaction with OH°) [1]	% of inhibition ([2]; Conc. 0.1 mM) [%]	% of inhibition ([2]; Conc. 0.2 mM) [%]	% of inhibition ([2]; Conc. 0.3 mM) [%]	% of inhibition ([2]; Conc. 0.5 mM) [%]	% of inhibition ([2]; Conc. 0.6 mM)	IC50 [2] [µM]	Literature k (speed constant of the reaction with OH°) [3]	other results
CSCCC(NC(C)=O)C(=O)Nc1cc(N2CCCCC2)nc(NC(=O)C(CCSC)NC(C)=O)[n+]1[O-] (racemic) [Disubstituted (N-acetyl-methionine), diamide of 2,4-diamino-6-piperidinopyrimidine-3-oxide and N-acetyl-D,L-methionine]	19.40-19.50 10^9 M^-1.s^-1	19.45 10^9 M^-1.s^-1	10.56	15.62	25.99	38.71	43.75%	~670	–	speed constant with respect to mannitol [1]: more than eleven times; % of inhibition ([2]; Conc. 0.4 mM): 30.77%; % of inhibition ([2]; Conc. 0.7 mM): 53.22%
CSCCC(NC(C)=O)C(=O)Nc1cc(N2CCCCC2)nc(N)[n+]1[O-] (racemic) [Monosubstituted (N-acetyl-methionine), amide of 2,4-diamino-6-piperidinopyrimidine-3-oxide and N-acetyl-D,L-methionine]	13.10-13.40 10^9 M^-1.s^-1	13.25 10^9 M^-1.s^-1	7.57	14.49	19.38	27.17	32.01%	–	–	% of inhibition ([2]; Conc. 0.4 mM): 25.71%; % of inhibition ([2]; Conc. 0.6 mM, listed as monosubstituted compound): 32%
OC[C@@H](O)[C@@H](O)[C@H](O)[C@H](O)CO [Mannitol]	1.52-1.84 10^9 M^-1.s^-1	1.68 10^9 M^-1.s^-1	–	–	–	–	–	–	1.8 10^9 M^-1.s^-1	–
CSCC[C@H](N)C(=O)O [Methionine]	5.02-5.36 10^9 M^-1.s^-1	5.19 10^9 M^-1.s^-1	–	–	–	–	–	–	6.5 10^9 M^-1.s^-1	–
Nc1cc(N2CCCCC2)nc(N)[n+]1[O-] [Minoxidil, 2,4-diamino-6-piperidinopyrimidine-3-oxide]	10.20-11.40 10^9 M^-1.s^-1	10.80 10^9 M^-1.s^-1	25.62	41.86	57.20	74.12	82.70%	~250	–	% of inhibition ([2]; Conc. 0.05 mM): 11.71%; growth of keratinocytes and of hair (keratinocytes, hair; certain subjects having androgenic alopecy): stimulates the in vitro and in vivo growth of keratinocytes, and the growth of hair; time of use to appearance of the growth phenomenon (keratinocytes, hair; varies as a function of the subjects): about four months (or more); average quantity of the applied dose reaching the blood stream ([4]; average): 1.4%; quantity of the applied dose reaching the blood stream, range ([4]; range of values): 0.3 to 4.5%
CSCC[C@H](NC(C)=O)C(=O)O [N-acetyl-methionine]	–	6.02 10^9 M^-1.s^-1	–	–	–	–	not observed activity	–	6.7 10^9 M^-1.s^-1	inhibition ([2]; 2 mM): 10%
Nc1cc(N2CCCCC2)nc(N)n1 [Reduced minoxidil]	8.47-9.16 10^9 M^-1.s^-1	8.81 10^9 M^-1.s^-1	–	–	–	–	–	–	–	speed constant with respect to mannitol [1]: five times
N[C@@H](CS)C(=O)O [cysteine]	–	–	–	–	–	–	–	~51	–	% of inhibition ([2]; cysteine 0.005 mM): 6.52%; % of inhibition ([2]; cysteine 0.008 mM): 8.58%; % of inhibition ([2]; cysteine 0.01 mM): 9.61%; % of inhibition ([2]; cysteine 0.03 mM): 31.72%; % of inhibition ([2]; cysteine 0.04 mM): 34.45%; % of inhibition ([2]; cysteine 0.05 mM): 46.71%; % of inhibition ([2]; cysteine 0.06 mM): 51.93%; % of inhibition ([2]; cysteine 0.07 mM): 57.17%; reactivity with respect to the superoxide anion [5]: most reactive with respect to the superoxide anion
